# Test results: the OligoGym collection
# Values joined by “and” are separate entries in the source; they are usually repeats but may differ in a detail not shown here. Equal entries are not always repeated. After the bases stand the sugars from the 5' end (letter, count) and the backbone: PS all phosphorothioate, else s phosphorothioate and o phosphodiester by linkage. Methylation of C is not given here. e = 2'-O-(2-methoxyethyl) (MOE); k = constrained ethyl (cEt); d = 2'-deoxy (DNA)
# Biological target: SOD1
# Details: ASO
Sequence,"target mRNA inhibition (HepG2, 3 µM) [%]","target mRNA inhibition (HepG2, 4 µM)",also measured
"CCTGCACTGGTACAGCC (sugars e3 k2 d7 k2 e3, PS)",17,–,–
"CCTTCTGCTCGAAATTG (sugars e3 k2 d7 k2 e3, PS)",16,–,–
"CCTTTGGCCCACCGTGT (sugars e3 k2 d7 k2 e3, PS)",46,–,–
"CGATCCCAATTACACCA (sugars e2 k2 d9 k2 e2, PS)",–,59%,–
"CGCCCTTCAGCACGCAC (sugars e2 k2 d8 k2 e3, PS)",–,67%,–
"CGCCCTTCAGCACGCAC (sugars e2 k2 d9 k2 e2, PS)",79,73%,"target mRNA inhibition (HepG2, 0.1875 µM): 12%; target mRNA inhibition (HepG2, 0.75 µM): 47%; target mRNA inhibition (HepG2, 12 µM): 94%"
"CGCTGCAGGAGACTACG (sugars e3 k2 d7 k2 e3, PS)",0,–,–
"CTACAGCTAGCAGGATA (sugars e2 k2 d8 k2 e3, PS)",89,87%,"target mRNA inhibition (HepG2, 0.1875 µM): 40%; target mRNA inhibition (HepG2, 0.75 µM): 79%; target mRNA inhibition (HepG2, 12 µM): 94%"
"CTACATCCAAGGGAATG (sugars e3 k2 d7 k2 e3, PS)",40,–,–
"CTCAGACTACATCCAAG (sugars e2 k2 d8 k2 e3, PS)",87,85% and 83%,"target mRNA inhibition (HepG2, 0.1875 µM): 38%; target mRNA inhibition (HepG2, 0.75 µM): 65%; target mRNA inhibition (HepG2, 12 µM): 90% and 96%"
"CTCCAACATGCCTCTCT (sugars e3 k2 d7 k2 e3, PS)",5,–,–
"CTGACAAGTTTAATACC (sugars e2 k2 d8 k2 e3, PS)",–,–,"target mRNA inhibition (HepG2, 5 µM): 30%"
"CTGACAAGTTTAATACC (sugars e3 k2 d7 k2 e3, PS)",10,–,–
"CTGCAGGAGACTACGACGCA (sugars e5 d10 e5, PS)",–,36%,–
"CTGGATAGAGGATTAAA (sugars e3 k2 d7 k2 e3, PS)",26,–,–
"CTGGTCCATTACTTTCC (sugars e3 k2 d7 k2 e3, PS)",11,–,–
"CTGGTCCATTACTTTCCTTC (sugars e5 d10 e5, PS)",50,–,–
"CTGGTTCCGAGGACTGCAAC (sugars e5 d10 e5, PS)",–,51%,–
"CTTCAATAGACACATCG (sugars e3 k2 d7 k2 e3, PS)",9,–,–
"CTTCAGCACGCACACGGCCT (sugars e5 d10 e5, PS)",48,57%,"target mRNA inhibition (HepG2, 0.1875 µM): 13%; target mRNA inhibition (HepG2, 0.75 µM): 23%; target mRNA inhibition (HepG2, 12 µM): 77%"
"CTTCCAAGTGATCATAA (sugars e2 k2 d8 k2 e3, PS)",–,–,"target mRNA inhibition (HepG2, 5 µM): 40%"
"CTTCTGCTCGAAATTGA (sugars e3 k2 d7 k2 e3, PS)",13,–,–

Sequence,"target mRNA inhibition (HepG2, 3 µM) [%]","target mRNA inhibition (HepG2, 4 µM)",also measured
"CTTCTGCTCGAAATTGATGA (sugars e5 d10 e5, PS)",–,11%,–
"CTTTCCTTCTGCTCGAA (sugars e3 k2 d7 k2 e3, PS)",0,–,–
"CTTTGCCCAAGTCATCTGCT (sugars e5 d10 e5, PS)",–,56%,"target mRNA inhibition (HepG2, 12 µM): 86%"
"CTTTTTCATGGACCACCAGT (sugars e5 d10 e5, PS)",–,–,"target mRNA inhibition (HepG2, 5 µM): 9%"
"GAATCCATGCAGGCCTT (sugars e3 k2 d7 k2 e3, PS)",9,–,–
"GACAAGTTTAATACCCA (sugars e3 k2 d7 k2 e3, PS)",24,–,–
"GACGCAAACCAGCACCCCGT (sugars e5 d10 e5, PS)",–,45%,–
"GATAACAGATGAGTTAA (sugars e2 k2 d8 k2 e3, PS)",–,41%,–
"GATACATTTCTACAGC (sugars ekddddddddekekee, linkages s1 o1 s8 o3 s2)",–,–,"target mRNA inhibition (A431, 0.12 µM): 0%; target mRNA inhibition (A431, 0.6 µM): 0%; target mRNA inhibition (A431, 3 µM): 0%; target mRNA inhibition (A431, 15 µM): 18%; target mRNA inhibition (HepG2, 0.222 µM): 40%; target mRNA inhibition (HepG2, 0.667 µM): 60%; target mRNA inhibition (HepG2, 2 µM): 80%; target mRNA inhibition (HepG2, 6 µM): 93%"
"GATACATTTCTACAGCT (sugars e2 k2 d9 k2 e2, PS)",75,77%,"target mRNA inhibition (HepG2, 0.1875 µM): 0%; target mRNA inhibition (HepG2, 0.75 µM): 45%; target mRNA inhibition (HepG2, 12 µM): 97%"
"GATACATTTCTACAGCT (sugars e3 k2 d7 k2 e3, PS)",40,–,–
"GATCCCAATTACACCAC (sugars e2 k2 d8 k2 e3, PS)",–,41%,–
"GATTTAAGTCTGGCAAA (sugars e2 k2 d8 k2 e3, PS)",–,–,"target mRNA inhibition (HepG2, 5 µM): 19%"
"GCACTGGTACAGCCTGCTGT (sugars e5 d10 e5, PS)",–,–,"target mRNA inhibition (HepG2, 5 µM): 31% and 24%"
"GCCATACAGGGTTTTTA (sugars e2 k2 d8 k2 e3, PS)",–,–,"target mRNA inhibition (HepG2, 5 µM): 13%"
"GCCATACAGGGTTTTTA (sugars e2 k2 d9 k2 e2, PS)",–,–,"target mRNA inhibition (HepG2, 5 µM): 26%"
"GCCGTCGCCCTTCAGCA (sugars e3 k2 d7 k2 e3, PS)",33,–,–
"GCCTCATAATAAGTGCC (sugars e2 k2 d8 k2 e3, PS)",–,–,"target mRNA inhibition (HepG2, 5 µM): 41%"
"GCGACTACTTTATAGGC (sugars e3 k2 d7 k2 e3, PS)",12,–,–
"GCGGCCAATGATGCAATGGT (sugars e5 d10 e5, PS)",–,–,"target mRNA inhibition (HepG2, 5 µM): 13%"
"GCTAGCAGGATAACAGA (sugars e2 k2 d8 k2 e3, PS)",–,19%,–
"GCTTCCCCACACCTTCACTG (sugars e5 d10 e5, PS)",50,–,–
